Measured values from patent US20160185797A1, “ALKYNYL ALCOHOLS AND METHODS OF USE” (Genentech, Inc., priority 2013, published 2016).
Like-named read-outs stand apart in the source and are kept apart here.

How the values were obtained:
[1] = target: T1, nuclear factor-kappa B (NF-kB)-inducing kinase (NIK) (Homo sapiens, UniProt Q99558); experiment: NIK enzyme inhibition assay (Transcreener ADP fluorescence polarization, NIK ADP-FP); assay type: biochemical
T1 construct: made in house; host or cells: baculovirus-infected insect cells

[2] = system: p52 (NF-kB2) nuclear translocation in HeLa cells; experiment: p52 (NF-kB2) nuclear translocation assay in HeLa cells, anti-lymphotoxin beta receptor antibody stimulated (non-classical NF-kB signaling), high content imaging; assay type: cell-based; conditions: 100 ng/mL anti-lymphotoxin beta receptor antibody for 5 hours, read-out: p52 HeLa Transloc Assay (IC50)
Method in brief: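 HeLa cells in 10% FBS medium were treated with compound (0.2% DMSO final) and stimulated with 100 ng/mL anti-lymphotoxin beta receptor antibody for 5 h. Fixed cells were immunostained for p52 and imaged with DRAQ5 nuclear stain. Translocation is the nuclear to cytoplasmic intensity ratio, […].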

[3] = system: REL-A (p65) nuclear translocation in HeLa cells; experiment: REL-A (p65) nuclear translocation assay in HeLa cells, TNF-α stimulated (classical NF-kB signaling), high content imaging; assay type: cell-based; conditions: compound 4.5 h, then 10 ng/mL TNF-α for 30 minutes, read-out: REL-A HeLa Transloc Assay (IC50)
Method in brief: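 HeLa cells in medium with 10% fetal bovine serum were exposed to compounds (0.2% DMSO final) for 4.5 hours, then stimulated with 10 ng/mL TNF-α for 30 minutes. After fixation in 4% paraformaldehyde and permeabilization with 0.1% Triton X-100, cells were stained with 400 ng/mL anti-REL-A (p65) antibody, an Alexa488 secondary and DRAQ5. Opera imaging quantified the nuclear-to-cytoplasmic signal ratio to give IC50.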

T1 sequence (Q99558 whole entry): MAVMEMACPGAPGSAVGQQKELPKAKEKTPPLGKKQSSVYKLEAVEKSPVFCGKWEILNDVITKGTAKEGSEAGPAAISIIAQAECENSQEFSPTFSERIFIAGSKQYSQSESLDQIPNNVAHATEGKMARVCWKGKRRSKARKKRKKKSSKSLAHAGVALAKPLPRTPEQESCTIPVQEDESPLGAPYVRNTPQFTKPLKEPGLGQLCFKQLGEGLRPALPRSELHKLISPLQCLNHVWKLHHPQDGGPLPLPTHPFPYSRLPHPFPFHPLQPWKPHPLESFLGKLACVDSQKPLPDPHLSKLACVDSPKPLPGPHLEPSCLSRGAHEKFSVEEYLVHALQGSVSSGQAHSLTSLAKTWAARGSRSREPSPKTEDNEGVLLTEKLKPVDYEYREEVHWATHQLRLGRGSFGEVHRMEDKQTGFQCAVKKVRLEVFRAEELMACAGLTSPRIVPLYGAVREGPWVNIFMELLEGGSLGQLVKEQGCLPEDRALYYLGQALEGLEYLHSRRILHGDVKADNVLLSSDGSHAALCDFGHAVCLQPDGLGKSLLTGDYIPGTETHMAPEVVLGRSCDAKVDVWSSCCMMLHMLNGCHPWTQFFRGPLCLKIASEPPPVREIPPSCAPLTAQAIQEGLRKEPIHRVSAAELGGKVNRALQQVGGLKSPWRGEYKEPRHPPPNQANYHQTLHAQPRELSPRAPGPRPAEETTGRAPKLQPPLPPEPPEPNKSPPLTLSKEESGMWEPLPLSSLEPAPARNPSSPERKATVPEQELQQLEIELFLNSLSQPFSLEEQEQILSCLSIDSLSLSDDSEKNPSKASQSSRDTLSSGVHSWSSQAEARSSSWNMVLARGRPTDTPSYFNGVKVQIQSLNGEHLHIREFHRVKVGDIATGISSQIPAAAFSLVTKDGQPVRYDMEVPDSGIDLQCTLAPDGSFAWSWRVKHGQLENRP

SMILES	Ki [1]	IC50 ([2]; Homo sapiens)	IC50 ([3]; Homo sapiens, HeLa)	Ki ([1]; purified NIK 0.5 nM, 10 μM ATP, pH 7.2, Ki from Morrison's quadratic equation)	IC50 [2]	IC50 [3]
CN1CC[C@@](O)(C#Cc2cccc(-c3nc(C(N)=O)cc(-c4cncn4C)n3)c2)C1=O [Example 66, 2-[3-[2-[(3R)-3-hydroxy-1-methyl-2-oxo-pyrrolidin-3-yl]ethynyl]phenyl]-6-(3-methylimidazol-4-yl) pyrimidine-4-carboxamide]	0.16 nM	139 nM	≥ 20000 nM	–	–	–
CCn1nccc1-c1cc(C(N)=O)nc(-c2cccc(C#C[C@]3(O)CCN(C)C3=O)c2)n1 [Example 67, 6-(2-ethylpyrazol-3-yl)-2-[3-[2-[(3R)-3-hydroxy-1-methyl-2-oxo-pyrrolidin-3-yl]ethynyl]phenyl] pyrimidine-4-carboxamide]	–	–	–	0.08 nM	21.8 nM	≥ 20000 nM
CN1CC[C@@](O)(C#Cc2cccc(-c3nc(C(N)=O)cc(-c4ccn(C)n4)n3)c2)C1=O [Example 68, 2-[3-[2-[(3R)-3-hydroxy-1-methyl-2-oxo-pyrrolidin-3-yl]ethynyl]phenyl]-6-(1-methylpyrazol-3-yl) pyrimidine-4-carboxamide]	0.53 nM	89.4 nM	≥ 20000 nM	–	–	–
CN1CC[C@@](O)(C#Cc2cccc(-c3nc(C(N)=O)cc(-c4ccn[nH]4)n3)c2)C1=O [Example 69, 2-[3-[2-[(3R)-3-hydroxy-1-methyl-2-oxo-pyrrolidin-3-yl]ethynyl]phenyl]-6-(1H-pyrazol-5-yl)pyrimidine-4-carboxamide]	0.6 nM	206 nM	≥ 20000 nM	–	–	–
CN1CC[C@@](O)(C#Cc2cccc(-c3nc(C(N)=O)cc(-n4ccnc4)n3)c2)C1=O [Example 70, 2-[3-[2-[(3R)-3-hydroxy-1-methyl-2-oxo-pyrrolidin-3-yl]ethynyl]phenyl]-6-imidazol-1-yl-pyrimidine-4-carboxamide]	0.94 nM	79 nM	≥ 20000 nM	–	–	–
Cc1ccnn1-c1cc(C(N)=O)nc(-c2cccc(C#C[C@]3(O)CCN(C)C3=O)c2)n1 [Example 71, 2-[3-[2-[(3R)-3-hydroxy-1-methyl-2-oxo-pyrrolidin-3-yl]ethynyl]phenyl]-6-(5-methylpyrazol-1-yl) pyrimidine-4-carboxamide]	0.18 nM	8.94 nM	≥ 20000 nM	–	–	–
CN1CC[C@@](O)(C#Cc2cccc(-c3nc(C(N)=O)c(N)c(-n4cccn4)n3)c2)C1=O [Example 72, 5-amino-2-[3-[2-[(3R)-3-hydroxy-1-methyl-2-oxo-pyrrolidin-3-yl]ethynyl]phenyl]-6-pyrazol-1-yl-pyrimidine-4-carboxamide]	0.05 nM	6.43 nM	6320 nM	–	–	–
CN1CC[C@@](O)(C#Cc2cccc(-c3nc(C(N)=O)cc4c3cnn4C)c2)C1=O [Example 74, 4-[3-[2-[(3R)-3-hydroxy-1-methyl-2-oxo-pyrrolidin-3-yl]ethynyl]phenyl]-1-methyl-pyrazolo[4,3-c]pyridine-6-carboxamide]	0.53 nM	60.2 nM	≥ 20000 nM	–	–	–
Cc1cnc2c(-c3cccc(C#C[C@]4(O)CCN(C)C4=O)c3)nc(C(N)=O)cn12 [Example 75, 8-[3-[2-[(3R)-3-hydroxy-1-methyl-2-oxo-pyrrolidin-3-yl]ethynyl]phenyl]-3-methyl-imidazo[1,2-a]pyrazine-6-carboxamide]	0.38 nM	66.8 nM	≥ 20000 nM	–	–	–
Cc1cn2cc(C(N)=O)nc(-c3cccc(C#C[C@]4(O)CCN(C)C4=O)c3)c2n1 [Example 76, 8-[3-[2-[(3R)-3-hydroxy-1-methyl-2-oxo-pyrrolidin-3-yl]ethynyl]phenyl]-2-methyl-imidazo[1,2-a] pyrazine-6-carboxamide]	0.86 nM	101 nM	≥ 20000 nM	–	–	–
CN1CC[C@@](O)(C#Cc2cc3c(c(-c4cccc(C(N)=O)n4)c2)OCC3)C1=O [Example 77, 6-[5-[2-[(3R)-3-hydroxy-1-methyl-2-oxo-pyrrolidin-3-yl]ethynyl]-2,3-dihydrobenzofuran-7-yl] pyridine-2-carboxamide]	0.99 nM	247 nM	≥ 20000 nM	–	–	–
